According to the supplement of paper PMC10627819:

Experiments:
S. aureus DSM 20231 [1] = assay: fitness (endpoint OD595 vs no drug) (fraction); higher = more growth
Method in brief: (§1)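 At 37 °C, bacteria in TSB, LB Lennox or CY were grown in 384-well plates from a starting OD595 of 0.01. OD595 was measured every 30 min for 14 h, with the first reading used as background. Fitness is the optical density at the switch to stationary phase as a fraction of the robust mean of no-drug control wells, capped at 1.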

S. aureus Newman [2] = assay: as above
Method in brief: as §1

B. subtilis 168 [3] = assay: Bliss interaction score (quartile over a dose matrix) (fitness difference); higher = more antagonism (negative = synergy)
Method in brief: (§2)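 Combination data were used to infer fitness under each single drug. Fitness is the OD595 at entry into stationary phase divided by the robust mean of the plate's no-drug wells, with a cap of 1. The Bliss score is the observed minus the expected product fitness, summarised by quartiles over technical, biological and donor/recipient replicates.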

S. aureus DSM 20231 [4] = assay: as above
Method in brief: as §2

S. aureus Newman [5] = assay: as above
Method in brief: as §2

S. pneumoniae D39V [6] = assay: as above
Method in brief: as §2

S. pneumoniae D39V [7] = assay: fitness (endpoint OD595 vs no drug) (fraction); higher = more growth
Method in brief: as §1

B. subtilis 168 [8] = assay: as above; settings: main component drawn
Method in brief: as §1
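For Bliss interaction score (quartile over a dose matrix) in this document: first quartile when negative (synergy) and third quartile when positive (antagonism).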

CC1(C)S[C@@H]2[C@H](NC(=O)[C@H](N)c3ccc(O)cc3)C(=O)N2[C@H]1C(=O)O [Amoxicillin] + CCCCCCCCCC(=O)N[C@@H]1[C@H]([C@@H]([C@H](O[C@H]1OC2=C3C=C4C=C2OC5=C(C=C(C=C5)[C@H]([C@H]6C(=O)N[C@@H](C7=C(C(=CC(=C7)O)OC8[C@H]([C@H]([C@@H]([C@H](O8)CO)O)O)O)C9=C(C=CC(=C9)[C@H](C(=O)N6)NC(=O)[C@@H]4NC(=O)[C@@H]1C2=CC(=CC(=C2)OC2=C(C=CC(=C2)[C@H](C(=O)N[C@H](CC2=CC(=C(O3)C=C2)Cl)C(=O)N1)N)O)O)O)C(=O)O)O[C@H]1[C@@H]([C@H]([C@@H]([C@H](O1)CO)O)O)NC(=O)C)Cl)CO)O)O [Teicoplanin]
fitness, main component drawn
Settings | first compound 0.0625 µg/mL | first compound 0.125 µg/mL | first compound 0.25 µg/mL
S. aureus DSM 20231 [1], partner 0.1562 µg/mL | 0.575 | 0.408 | 0.199
S. aureus DSM 20231 [1], partner 0.3125 µg/mL | 0.658 | – | –
S. aureus DSM 20231 [1], partner 0.625 µg/mL | 0.619 | – | 0.0287
S. aureus Newman [2], partner 0.1562 µg/mL | 0.947 | 0.94 | 0.848
S. aureus Newman [2], partner 0.3125 µg/mL | 0.898 | 0.913 | 0.815
S. aureus Newman [2], partner 0.625 µg/mL | 0.823 | 0.853 | 0.73

fitness, one replicate, main component drawn
Settings | partner 0.1562 µg/mL | partner 0.3125 µg/mL | partner 0.62 µg/mL | partner 0.625 µg/mL | partner 1.24 µg/mL | partner 2.48 µg/mL
S. aureus DSM 20231 [1], first compound 0.5 µg/mL | 0.0188 | 0.0061 | – | 0.0019 | – | –
S. aureus Newman [2], first compound 0.125 µg/mL | – | – | 0.747 | – | 0.689 | 0.396
S. aureus Newman [2], first compound 0.25 µg/mL | – | – | 0.725 | – | 0.785 | 0.491
S. aureus Newman [2], first compound 0.5 µg/mL | – | – | 0.724 | – | 0.684 | 0.462

main component drawn
Settings | Bliss interaction score
B. subtilis 168 [3] | -0.1
S. aureus DSM 20231 [4] | 0.0453
S. aureus Newman [5] | 0.0682
S. pneumoniae D39V [6] | -0.0856

CC1(C)S[C@@H]2[C@H](NC(=O)[C@H](N)c3ccc(O)cc3)C(=O)N2[C@H]1C(=O)O [Amoxicillin] + CC[C@H]1OC(=O)[C@H](C)[C@@H](O[C@H]2C[C@@](C)(OC)[C@@H](O)[C@H](C)O2)[C@H](C)[C@@H](O[C@@H]2O[C@H](C)C[C@H](N(C)C)[C@H]2O)[C@](C)(O)C[C@@H](C)CN(C)[C@H](C)[C@@H](O)[C@]1(C)O [Azithromycin]
fitness
Settings | first compound 0.0625 µg/mL | first compound 0.125 µg/mL | first compound 0.25 µg/mL
S. aureus DSM 20231 [1], partner 0.125 µg/mL | 0.527 | – | 0.0737
S. aureus DSM 20231 [1], partner 0.25 µg/mL | 0.614 | – | 0.0516
S. aureus DSM 20231 [1], partner 0.5 µg/mL | 0.277 | 0.108 | 0.0273
S. aureus Newman [2], partner 0.125 µg/mL | 0.788 | 0.795 | 0.757
S. aureus Newman [2], partner 0.25 µg/mL | 0.816 | 0.805 | 0.71
S. aureus Newman [2], partner 0.5 µg/mL | 0.681 | – | –

S. aureus DSM 20231 [1], first compound 0.5 µg/mL, one replicate
Settings | fitness
partner 0.125 µg/mL | 0.0165
partner 0.25 µg/mL | 0.004
partner 0.5 µg/mL | 0.0043

Settings | Bliss interaction score
B. subtilis 168 [3] | -0.0431
S. aureus DSM 20231 [4] | -0.0724
S. aureus Newman [5] | -0.0697
S. pneumoniae D39V [6] | 0.156

CC1(C)S[C@@H]2[C@H](NC(=O)[C@H](N)c3ccc(O)cc3)C(=O)N2[C@H]1C(=O)O [Amoxicillin] + O=C(N[C@H](CO)[C@H](O)c1ccc([N+](=O)[O-])cc1)C(Cl)Cl [Chloramphenicol]
fitness
Settings | first compound 0.0625 µg/mL | first compound 0.125 µg/mL | first compound 0.25 µg/mL
S. aureus DSM 20231 [1], partner 0.75 µg/mL | 0.446 | – | 0.041
S. aureus DSM 20231 [1], partner 1.5 µg/mL | 0.323 | 0.162 | 0.0389
S. aureus DSM 20231 [1], partner 3 µg/mL | 0.0721 | 0.0829 | 0.0294
S. aureus Newman [2], partner 0.75 µg/mL | 0.724 | 0.718 | –
S. aureus Newman [2], partner 3 µg/mL | – | 0.139 | –

S. aureus DSM 20231 [1], first compound 0.5 µg/mL, one replicate
Settings | fitness
partner 0.75 µg/mL | 0.0382
partner 1.5 µg/mL | 0.005
partner 3 µg/mL | 0.0307

Settings | Bliss interaction score
B. subtilis 168 [3] | 0.122
S. aureus DSM 20231 [4] | -0.0444
S. aureus Newman [5] | -0.108
S. pneumoniae D39V [6] | 0.165

CO/N=C(\C(=O)N[C@@H]1C(=O)N2C(C(=O)[O-])=C(C[N+]3(C)CCCC3)CS[C@H]12)c1csc(N)n1 [Cefepime] + CCCCCCCCCC(=O)N[C@@H]1[C@H]([C@@H]([C@H](O[C@H]1OC2=C3C=C4C=C2OC5=C(C=C(C=C5)[C@H]([C@H]6C(=O)N[C@@H](C7=C(C(=CC(=C7)O)OC8[C@H]([C@H]([C@@H]([C@H](O8)CO)O)O)O)C9=C(C=CC(=C9)[C@H](C(=O)N6)NC(=O)[C@@H]4NC(=O)[C@@H]1C2=CC(=CC(=C2)OC2=C(C=CC(=C2)[C@H](C(=O)N[C@H](CC2=CC(=C(O3)C=C2)Cl)C(=O)N1)N)O)O)O)C(=O)O)O[C@H]1[C@@H]([C@H]([C@@H]([C@H](O1)CO)O)O)NC(=O)C)Cl)CO)O)O [Teicoplanin]
fitness, main component drawn
Settings | first compound 0.125 µg/mL | first compound 0.25 µg/mL | first compound 0.5 µg/mL
S. aureus DSM 20231 [1], partner 0.1562 µg/mL | 0.9 | 0.88 | 0.864
S. aureus DSM 20231 [1], partner 0.3125 µg/mL | 0.959 | 0.929 | 0.919
S. aureus DSM 20231 [1], partner 0.625 µg/mL | 0.984 | 0.87 | 0.842
S. aureus Newman [2], partner 0.1562 µg/mL | 0.892 | 0.827 | 0.713
S. aureus Newman [2], partner 0.3125 µg/mL | 0.897 | 0.799 | 0.73
S. aureus Newman [2], partner 0.625 µg/mL | 0.891 | 0.766 | 0.646

fitness, S. aureus Newman [2], one replicate, main component drawn
Settings | first compound 0.125 µg/mL | first compound 0.25 µg/mL | first compound 0.5 µg/mL
partner 0.62 µg/mL | 0.712 | 0.61 | 0.625
partner 1.24 µg/mL | 0.7 | 0.634 | 0.576
partner 2.48 µg/mL | 0.459 | 0.173 | 0.203

main component drawn
Settings | Bliss interaction score
B. subtilis 168 [3] | -0.172
S. aureus DSM 20231 [4] | -0.0986
S. aureus Newman [5] | -0.0867
S. pneumoniae D39V [6] | 0.0453

CCCCCCCCCC(=O)N[C@@H](Cc1c[nH]c2ccccc12)C(=O)N[C@H](CC(N)=O)C(=O)N[C@@H](CC(=O)O)C(=O)N[C@@H]1C(=O)NCC(=O)N[C@@H](CCCN)C(=O)N[C@@H](CC(=O)O)C(=O)N[C@H](C)C(=O)N[C@@H](CC(=O)O)C(=O)NCC(=O)N[C@H](CO)C(=O)N[C@@H]([C@H](C)CC(=O)O)C(=O)N[C@@H](CC(=O)c2ccccc2N)C(=O)O[C@@H]1C [Daptomycin] + C/C(=C\C(=O)OCCCCCCCCC(=O)O)C[C@@H]1OC[C@H](C[C@@H]2O[C@H]2[C@@H](C)[C@H](C)O)[C@@H](O)[C@H]1O [Pseudomonic acid]
fitness, S. aureus Newman [2], one replicate
Settings | first compound 0.125 µg/mL | first compound 0.25 µg/mL | first compound 0.5 µg/mL
partner 0.0313 µg/mL | 0.0598 | 0.0545 | 0.0362
partner 0.0625 µg/mL | 0.0219 | 0.0175 | 0.0123
partner 0.125 µg/mL | 0.0444 | 0.0303 | 0.0061

fitness, S. pneumoniae D39V [7]
Settings | first compound 1 µg/mL | first compound 2 µg/mL | first compound 4 µg/mL
partner 0.03 µg/mL | 0.895 | 0.904 | 0.893
partner 0.06 µg/mL | 0.679 | 0.765 | 0.736
partner 0.12 µg/mL | 0.324 | 0.407 | 0.408

Settings | Bliss interaction score
B. subtilis 168 [3] | 0.058
S. aureus DSM 20231 [4] | -0.0135
S. aureus Newman [5] | -0.0312
S. pneumoniae D39V [6] | -0.101

CCCCCCCCCC(=O)N[C@@H](Cc1c[nH]c2ccccc12)C(=O)N[C@H](CC(N)=O)C(=O)N[C@@H](CC(=O)O)C(=O)N[C@@H]1C(=O)NCC(=O)N[C@@H](CCCN)C(=O)N[C@@H](CC(=O)O)C(=O)N[C@H](C)C(=O)N[C@@H](CC(=O)O)C(=O)NCC(=O)N[C@H](CO)C(=O)N[C@@H]([C@H](C)CC(=O)O)C(=O)N[C@@H](CC(=O)c2ccccc2N)C(=O)O[C@@H]1C [Daptomycin] + CC(C1CCC(C(O1)OC2C(CC(C(C2O)OC3C(C(C(CO3)(C)O)NC)O)N)N)N)NC [Gentamicin]
fitness, B. subtilis 168 [8]
Settings | first compound 0.125 µg/mL | first compound 0.25 µg/mL
partner 0.0625 µg/mL | 0.905 | 0.906
partner 0.25 µg/mL | 0.0486 | –

Settings | fitness
B. subtilis 168 [8], first compound 1 µg/mL, partner 0.0625 µg/mL, one replicate | 0.718
B. subtilis 168 [8], first compound 1 µg/mL, partner 0.125 µg/mL, one replicate | 0.499
B. subtilis 168 [8], first compound 1 µg/mL, partner 0.25 µg/mL, one replicate | 0.0176
S. aureus Newman [2], first compound 0.125 µg/mL, partner 0.5 µg/mL, main component drawn | 0.926
S. aureus Newman [2], first compound 0.125 µg/mL, partner 1 µg/mL, main component drawn | ≥ 1
S. aureus Newman [2], first compound 0.125 µg/mL, partner 2 µg/mL, main component drawn | ≥ 1
S. aureus Newman [2], first compound 0.25 µg/mL, partner 0.5 µg/mL, main component drawn | 0.947
S. aureus Newman [2], first compound 0.25 µg/mL, partner 1 µg/mL, main component drawn | ≥ 1
S. aureus Newman [2], first compound 0.25 µg/mL, partner 2 µg/mL, main component drawn | ≥ 1
S. aureus Newman [2], first compound 0.5 µg/mL, partner 0.5 µg/mL, main component drawn | 0.949
S. aureus Newman [2], first compound 0.5 µg/mL, partner 1 µg/mL, main component drawn | 0.993
S. aureus Newman [2], first compound 0.5 µg/mL, partner 2 µg/mL, main component drawn | ≥ 1
S. pneumoniae D39V [7], first compound 1 µg/mL, partner 2 µg/mL, main component drawn | 0.952
S. pneumoniae D39V [7], first compound 1 µg/mL, partner 4 µg/mL, main component drawn | 0.917
S. pneumoniae D39V [7], first compound 1 µg/mL, partner 8 µg/mL, main component drawn | 0.868
S. pneumoniae D39V [7], first compound 2 µg/mL, partner 2 µg/mL, main component drawn | 0.956
S. pneumoniae D39V [7], first compound 2 µg/mL, partner 4 µg/mL, main component drawn | 0.905
S. pneumoniae D39V [7], first compound 2 µg/mL, partner 8 µg/mL, main component drawn | 0.877
S. pneumoniae D39V [7], first compound 4 µg/mL, partner 8 µg/mL, main component drawn | 0.724

fitness, S. aureus Newman [2], one replicate, main component drawn
Settings | first compound 0.125 µg/mL | first compound 0.25 µg/mL | first compound 0.5 µg/mL
partner 0.375 µg/mL | ≥ 1 | ≥ 1 | ≥ 1
partner 0.75 µg/mL | ≥ 1 | ≥ 1 | ≥ 1
partner 1.5 µg/mL | 0.656 | 0.153 | 0.237

main component drawn
Settings | Bliss interaction score
B. subtilis 168 [3] | 0.136
S. aureus DSM 20231 [4] | 0.0663
S. aureus Newman [5] | -0.0263
S. pneumoniae D39V [6] | 0.0772
